Test results: US7301022B2, “Vanilloid receptor ligands and their use in treatments” (Amgen Inc., priority 2005, dated 2007)
Where a name gives a salt, the structure may show the parent alone.

Row | SMILES | melting point
1 | CC1(C)CC(Nc2nc(C(F)(F)F)ccc2-c2cc(Oc3cccc4sc(N)nc34)ncn2)CC(C)(C)N1 (as salt: trifluoroacetic acid salt) [Example 35, 4-(6-(2-(2,2,6,6-Tetramethylpiperidin-4-ylamino)-6-(trifluoromethyl)pyridin-3-yl)pyrimidin-4-yloxy)benzo[d]thiazol-2-amine trifluoroacetic acid salt] | 264 to 265.1 °C
2 | CC(=O)Nc1nc2c(Oc3cc(-c4ccc(C(F)(F)F)nc4NC4CC(C)(C)NC(C)(C)C4)ncn3)cccc2s1 (as salt: trifluoroacetic acid salt) [Example 36, N-(4-(6-(2-(2,2,6,6-Tetramethylpiperidin-4-ylamino)-6-(trifluoromethyl)-pyridin-3-yl)pyrimidin-4-yloxy)benzo[d]thiazol-2-yl)acetamide trifluoroacetic acid salt] | 253.4 to 254.1 °C
3 | CC(=O)Nc1nc2c(Oc3cc(-c4ccc(C(F)(F)F)cc4NC(=O)C4(C)CCCCN4CC(C)C)ncn3)cccc2s1 (stereo not drawn) (as salt: trifluoroacetic acid salt) [Example 44, N-(2-(6-(2-Acetamidobenzo[d]thiazol-4-yloxy)pyrimidin-4-yl)-5-(trifluoromethyl)phenyl)-1-isobutyl-2-methylpiperidine-2-carboxamide trifluoroacetic acid salt] | < 80 °C
4 | CC1CC[C@@H](C(=O)Nc2cc(C(F)(F)F)ccc2-c2cc(Oc3cccc4ccc(N)nc34)ncn2)N1 (mixture of isomers) [Example 48, (2S,5R,S)-N-(2-(6-(2-Aminoquinolin-8-yloxy)pyrimidin-4-yl)-5-(trifluoromethyl)phenyl)-5-methylpyrrolidine-2-carboxamide] | 162.9 to 164 °C
5 | CC(=O)Nc1nc2c(Oc3cc(-c4ccc(C(F)(F)F)nc4NCC4CCCCN4CC(C)C)ncn3)cccc2s1 (racemic) [Example 31, N-(4-(6-(2-(((R,S)-1-isobutylpiperidin-2-yl)methylamino)-6-(trifluoromethyl)pyridin-3-yl)pyrimidin-4-yloxy)benzo[d]thiazol-2-yl)acetamide] | 121.7 to 121.9 °C
6 | CC(=O)Nc1nc2c(Oc3cc(-c4ccc(C(F)(F)F)nc4NC4CCN(C(C)C)C4)ncn3)cccc2s1 (stereo not drawn) [Example 4, N-(4-(6-(2-(1-Isopropylpyrrolidin-3-ylamino)-6-(trifluoromethyl)pyridin-3-yl)pyrimidin-4-yloxy)benzo[d]thiazol-2-yl)acetamide] | 140 to 141 °C
7 | CC(C)CN1CCCCC1CNc1nc(C(F)(F)F)ccc1-c1cc(Oc2cccc3[nH]c(=O)c(N)nc23)ncn1 (stereo not drawn) [Example 6] | 228 to 229 °C
8 | CC(C)CN1CCCCC1CN(C)c1nc(C(F)(F)F)ccc1-c1cc(Oc2cccc3sc(N)nc23)ncn1 (stereo not drawn) [Example 24, 4-(6-(2-(((1-Isobutylpiperidin-2-yl)methyl)(methyl)amino)-6-(trifluoromethyl)pyridin-3-yl)pyrimidin-4-yloxy)benzo[d]thiazol-2-amine] | 98.9 to 101.9 °C
9 | CC(C)CN1CCC[C@H]1CNc1nc(C(F)(F)F)ccc1-c1cc(Oc2cccc3sc(N)nc23)ncn1 [Example 25] | 198 °C (dec.)
10 | CC(C)CN1CCCCC1CNc1nc(C(F)(F)F)ccc1-c1cc(Oc2cccc3sc(N)nc23)ncn1 (stereo not drawn) [Example 26] | 118 to 118.2 °C
11 | CC(C)CN1CCC[C@H]1CN(C)c1nc(C(F)(F)F)ccc1-c1cc(Oc2cccc3sc(N)nc23)ncn1 [Example 28] | 93.2 to 96.8 °C
12 | CC(=O)Nc1nc2c(Oc3cc(-c4ccc(C(F)(F)F)nc4NC[C@@H]4CCCN4CC(C)C)ncn3)cccc2s1 [Example 30] | 105.8 to 107.3 °C
13 | CC(=O)Nc1nc2c(Oc3cc(-c4ccc(C(F)(F)F)cc4NC(=O)[C@@H]4CCN4C(C)C)ncn3)cccc2s1 [Example 37, (2S)-N-(2-(6-(2-Acetamidobenzo[d]thiazol-4-yloxy)pyrimidin-4-yl)-5-(trifluoromethyl)phenyl)-1-isopropylazetidine-2-carboxamide] | 198.8 to 199.4 °C
14 | CC(=O)Nc1nc2c(Oc3cc(-c4ccc(C(F)(F)F)cc4NC(=O)[C@@H]4CCN4CC(C)C)ncn3)cccc2s1 [Example 38, (2S)-N-(2-(6-(2-Acetamidobenzo[d]thiazol-4-yloxy)pyrimidin-4-yl)-5-(trifluoromethyl)phenyl)-1-isobutylazetidine-2-carboxamide] | 174.4 to 174.9 °C
15 | CC(C)CN1CCCCC1C(=O)Nc1cc(C(F)(F)F)ccc1-c1cc(Oc2cccc3[nH]c(=O)c(N)nc23)ncn1 (stereo not drawn) [Example 42, N-(2-(6-(3-Amino-2-oxo-1,2-dihydroquinoxalin-5-yloxy)pyrimidin-4-yl)-5-(trifluoromethyl)phenyl)-1-isobutylpiperidine-2-carboxamide] | > 250 °C
16 | CC(=O)Nc1nc2c(Oc3cc(-c4ccc(C(F)(F)F)cc4NC(=O)C4(C)CCCCN4)ncn3)cccc2s1 (stereo not drawn) [Example 43, N-(2-(6-(2-Acetamidobenzo[d]thiazol-4-yloxy)pyrimidin-4-yl)-5-(trifluoromethyl)phenyl)-2-methylpiperidine-2-carboxamide] | 146.4 to 148.8 °C
17 | CC(=O)Nc1nc2c(Oc3cc(-c4ccc(C(F)(F)F)cc4NC(=O)C4CCCCN4CC4CC4)ncn3)cccc2s1 (stereo not drawn) [Example 49, N-(2-(6-(2-Acetamidobenzo[d]thiazol-4-yloxy)pyrimidin-4-yl)-5-(trifluoromethyl)phenyl)-1-(cyclopropylmethyl)piperidine-2-carboxamide] | 212.3 to 213.5 °C
18 | CC(=O)Nc1nc2c(Oc3cc(-c4ccc(C(F)(F)F)cc4NCc4cncn4Cc4ccccc4)ncn3)cccc2s1 [Example 54, N-(4-(6-(2-((1-Benzyl-1H-imidazol-5-yl)methylamino)-4-(trifluoromethyl)-phenyl)pyrimidin-4-yloxy)benzo[d]thiazol-2-yl)acetamide] | 264 to 264.1 °C

Next, values leading:

Row | melting point | SMILES
19 | 111.1 to 113.9 °C | CC(C)CN1CCCCC1C(=O)Nc1cc(C(F)(F)F)ccc1-c1cc(Oc2cccc3ccc(N)nc23)ncn1 (stereo not drawn)
20 | 138 to 139 °C | CC(=O)Nc1nc2c(Oc3cc(-c4ccc(C(F)(F)F)nc4NC4CCN(CC(C)C)C4)ncn3)cccc2s1 (stereo not drawn) [Example 3, N-(4-(6-(2-(1-Isobutylpyrrolidin-3-ylamino)-6-(trifluoromethyl)pyridin-3-yl)pyrimidin-4-yloxy)benzo[d]thiazol-2-yl)acetamide]
21 | 166 to 170 °C | CC(C)CN1CCCCC1C(C)(C)Nc1nc(C(F)(F)F)ccc1-c1cc(Oc2cccc3sc(N)nc23)ncn1 (stereo not drawn) [Example 5, 4-(6-(2-(2-(1-Isobutylpiperidin-2-yl)propan-2-ylamino)-6-(trifluoromethyl)pyridin-3-yl)pyrimidin-4-yloxy)benzo[d]thiazol-2-amine]
22 | 211.3 to 213 °C | CC(C)N1CCCCC1CNc1nc(C(F)(F)F)ccc1-c1cc(Oc2cccc3sc(N)nc23)ncn1 (stereo not drawn) [Example 27]
23 | 123.2 to 125.4 °C | CC(=O)Nc1nc2c(Oc3cc(-c4ccc(C(F)(F)F)nc4N(C)CC4CCCCN4CC(C)C)ncn3)cccc2s1 (stereo not drawn) [Example 29, N-(4-(6-(2-(((1-isobutylpiperidin-2-yl)methyl)(methyl)amino)-6-(trifluoromethyl)pyridin-3-yl)pyrimidin-4-yloxy)benzo[d]thiazol-2-yl)acetamide]
24 | 159.3 to 162 °C | CC(=O)Nc1nc2c(Oc3cc(-c4ccc(C(F)(F)F)nc4NCC4CCCCN4C(C)C)ncn3)cccc2s1 (stereo not drawn) [Example 32]
25 | 260 °C (dec.) | CC(=O)Nc1nc2c(Oc3cc(-c4ccc(C(F)(F)F)cc4NC(=O)C4CCCCN4C(C)C)ncn3)cccc2s1 (stereo not drawn) [Example 50, N-(2-(6-(2-Acetamidobenzo[d]thiazol-4-yloxy)pyrimidin-4-yl)-5-(trifluoromethyl)phenyl)-1-isopropylpiperidine-2-carboxamide]
26 | 153.4 to 154.9 °C | CC(=O)Nc1nc2c(Oc3cc(-c4ccc(C(F)(F)F)cc4NC(=O)C4CCCCN4CC(C)C)ncn3)cccc2s1 (stereo not drawn) [Example 51, N-(2-(6-(2-Acetamidobenzo[d]thiazol-4-yloxy)pyrimidin-4-yl)-5-(trifluoromethyl)phenyl)-1-isobutylpiperidine-2-carboxamide]
27 | 263 to 265.2 °C | CC(=O)Nc1nc2c(Oc3cc(-c4ccc(C(F)(F)F)cc4NCc4cncn4C)ncn3)cccc2s1 [Example 55, N-(4-(6-(2-((1-Methyl-1H-imidazol-5-yl)methylamino)-4-(trifluoromethyl)-phenyl)pyrimidin-4-yloxy)benzo[d]thiazol-2-yl)acetamide]
